Experimental data from patent US11485741B2, “Macrocyclic toll-like receptor 7 (TLR7) agonists” (BRISTOL-MYERS SQUIBB COMPANY, priority 2018, dated 2022).
Read-outs that look alike come from different tables or passages of the source.

Columns and labels:
[1] = system: interleukin 6 (IL-6); experiment: Interleukin 6 induction assay in human whole blood (AlphaLISA); type: cell-based; details: 20 h at 37° C., 100% set by resiquimod reference at 10 μM, average if more than one assay, read-out: IL-6 Induction EC50 (nM) (normalized 10 μM)
Source text: Table A presents biological activity data for compounds disclosed herein. One set of data relates TLR7 agonism activity using the HEK-Blue™ TLR7 reporter assay, as described in Example 11 hereinbelow. Another set of data relates to the induction of interleukin 6 (IL-6), a cytokine that plays an important role in the TLR7 pathway. […] In some instances, more that one TLR7 agonism or IL-6 induction assay was made; if so, the reported value is an average. This example describes a method for assaying interleukin 6 (IL 6) induction by compounds disclosed in this specification. Compounds suspended in DMSO were transferred to individual wells of a Matrix Technologies clear, V-bottom 384-well plate using ECHO acoustic liquid handling technology (25 nL per well). Human whole-blood samples (25 uL) were added to each well using a CyBio FeliX liquid handling instrument and the plate was shaken on a plate shaker for three minutes before incubating the reaction mixtures at 37° C. for 20 h. Basel RPMI 1640 medium (supplemented with L-glutamine) was then added to each well (25 uL per well) prior to liberating plasma from each sample by centrifugation (450×g, 5 min, ambient temperature). Treated plasma samples (3 uL) were subsequently transferred to individual wells of a white, shallow, 384-well ProxiPlate (PerkinElmer) using the FeliX liquid handling instrument and their IL6 levels were measured using AlphaLISA technology as described by the manufacturer (PerkinElmer).

[2] = biological target: T1, human TLR7 (Homo sapiens, UniProt Q9NYK1); experiment: HEK-Blue TLR7 reporter assay (SEAP reporter); type: cell-based; details: HEK-Blue TLR7 cells, 18 h treatment, SEAP readout; average if more than one assay; read-out: TLR7 Agonism HEK Blue ™ Assay EC50
T1 construct: host or cells: HEK-Blue TLR7 cells (engineered human embryonic kidney cells)
T1 sequence (Q9NYK1 27-1049): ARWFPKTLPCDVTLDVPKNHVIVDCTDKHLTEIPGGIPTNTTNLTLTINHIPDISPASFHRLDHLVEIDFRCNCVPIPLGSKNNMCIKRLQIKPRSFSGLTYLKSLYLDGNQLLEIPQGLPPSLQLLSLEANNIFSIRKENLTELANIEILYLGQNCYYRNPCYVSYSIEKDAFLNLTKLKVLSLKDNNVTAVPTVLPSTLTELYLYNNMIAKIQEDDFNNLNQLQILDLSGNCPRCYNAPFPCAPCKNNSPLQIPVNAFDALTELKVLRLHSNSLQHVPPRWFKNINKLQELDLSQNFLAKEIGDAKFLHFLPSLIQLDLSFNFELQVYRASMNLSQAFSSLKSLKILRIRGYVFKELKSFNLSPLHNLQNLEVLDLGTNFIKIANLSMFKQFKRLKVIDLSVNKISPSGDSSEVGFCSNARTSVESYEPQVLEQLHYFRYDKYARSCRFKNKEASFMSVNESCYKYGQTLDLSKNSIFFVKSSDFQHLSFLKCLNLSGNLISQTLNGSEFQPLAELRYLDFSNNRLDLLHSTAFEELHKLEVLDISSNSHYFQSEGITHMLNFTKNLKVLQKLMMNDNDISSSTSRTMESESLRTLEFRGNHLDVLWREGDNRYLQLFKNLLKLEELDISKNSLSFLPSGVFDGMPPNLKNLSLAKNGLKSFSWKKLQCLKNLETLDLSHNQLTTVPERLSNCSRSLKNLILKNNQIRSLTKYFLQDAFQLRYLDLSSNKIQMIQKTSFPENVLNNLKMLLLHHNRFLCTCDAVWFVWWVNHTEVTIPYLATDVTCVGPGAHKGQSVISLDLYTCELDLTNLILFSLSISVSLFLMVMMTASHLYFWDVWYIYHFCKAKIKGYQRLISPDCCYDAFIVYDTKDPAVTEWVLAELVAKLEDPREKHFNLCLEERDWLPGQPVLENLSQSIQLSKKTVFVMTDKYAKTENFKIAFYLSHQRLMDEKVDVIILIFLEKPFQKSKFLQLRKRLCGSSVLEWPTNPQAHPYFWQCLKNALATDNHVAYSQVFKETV
Source text: Table A presents biological activity data for compounds disclosed herein. One set of data relates TLR7 agonism activity using the HEK-Blue™ TLR7 reporter assay, as described in Example 11 hereinbelow. Another set of data relates to the induction of interleukin 6 (IL-6), a cytokine that plays an important role in the TLR7 pathway. […] In some instances, more that one TLR7 agonism or IL-6 induction assay was made; if so, the reported value is an average.
This example describes a method for assaying TLR7 agonist activity of the compounds disclosed in this specification.
HEK-Blue™ TLR7 cells were added to each well of a 384-well tissue-culture plate (15,000 cells per well) and incubated 16-18 h at 37° C., 5% CO2. Compounds (100 nl) were dispensed into wells containing the HEK-Blue™ TLR cells and the treated cells were incubated at 37° C., 5% CO2. After 18 h treatment ten microliters of freshly-prepared Quanti-Blue™ reagent (Invivogen) was added to each well, incubated for 30 min (37° C., 5% CO2) and SEAP levels measured using an Envision plate reader (OD=620 nm). […] EC50's can be determined with software such as Graphpad Prism™.

Row | EC50 [2] [nM] | SMILES | EC50 ([1]; Homo sapiens, 20 h) [nM] | EC50 [1] [nM]
1 | 0.91 | Nc1nc2nc3c1nc(O)n3Cc1ccc(-c3ccc(CNC4CCC4)cc3)c(c1)C/C=C\CCCO2 [IIb-17] | 0.99 | –
2 | 3.8 | Nc1nc2nc3c1nc(O)n3Cc1ccc(-c3ccc(CNC4CCC4)cc3)c(c1)CCCCCCO2 [IIb-18] | 34 | –
3 | 1 | Nc1nc2nc3c1nc(O)n3Cc1ccc(-c3ccc(CNC4CCC4)cc3)c(c1)OCCCCO2 [IIb-19] | 1.4 | –
4 | 56 | Nc1nc2nc3c1nc(O)n3Cc1ccc(-c3ccc(CNC4CCC4)cc3)c(c1)OCCCO2 [IIb-20] | 150 | –
5 | 0.42 | Nc1nc2nc3c1nc(O)n3Cc1ccc(-c3ccc(CNC4CC(O)C4)cc3)c(c1)C/C=C\CCO2 (stereo not shown) [IIb-22] | 1.4 | –
6 | 0.81 | Nc1nc2nc3c1nc(O)n3Cc1ccc(-c3ccc(CNC4CC(O)C4)cc3)c(c1)C/C=C/CCO2 (stereo not shown) [IIb-23] | 2 | –
7 | 0.68 | Nc1nc2nc3c1nc(O)n3Cc1ccc(-c3ccc(CNC4CC(O)C4)cc3)c(c1)C/C=C/CCO2 (stereo not shown) [IIb-24] | – | 2.7
8 | 1.5 | Nc1nc2nc3c1nc(O)n3Cc1ccc(-c3ccc(CNC4CC(F)(F)C4)cc3)c(c1)C/C=C/CCO2 [IIb-25] | 0.81 | –
9 | 0.26 | CC1(NCc2ccc(-c3ccc4cc3C/C=C/CCOc3nc(N)c5nc(O)n(c5n3)C4)cc2)CCC1 [IIb-26] | 1 | –
10 | 0.62 | CC(=O)N1CC(NCc2ccc(-c3ccc4cc3C/C=C\CCOc3nc(N)c5nc(O)n(c5n3)C4)cc2)C1 [IIb-27] | 4 | –
11 | 3.2 | Nc1nc2nc3c1nc(O)n3Cc1ccc(-c3cccc(C(=O)NC4CNC4)c3)c(c1)C/C=C\CCO2 [IIb-29] | 24 | –
12 | 1.6 | Nc1nc2nc3c1nc(O)n3Cc1ccc(-c3ccc(C(=O)NC4CNC4)cc3)c(c1)C/C=C\CCO2 [IIb-30] | 36 | –
13 | 6.8 | Nc1nc2nc3c1nc(O)n3Cc1ccc(-c3cccc(C(=O)NC4CNC4)c3)c(c1)C/C=C/CCO2 [IIb-31] | 28 | –
14 | 4.1 | Nc1nc2nc3c1nc(O)n3Cc1ccc(-c3ccc(C(=O)NC4CNC4)cc3)c(c1)C/C=C/CCO2 [IIb-32] | 32 | –
15 | 0.12 | Nc1nc2nc3c1nc(O)n3Cc1ccc(-c3ccc(CNC4CCOCC4)cc3)c(c1)C/C=C\CCO2 [IIb-34] | 0.76 | –
16 | 3.8 | Nc1nc2nc3c1nc(O)n3Cc1ccc(-c3cnn(CCN4CCOCC4)c3)c(c1)C/C=C/CCO2 [IIb-37] | 180 | –
17 | 22 | Nc1nc2nc3c1nc(O)n3Cc1ccc(-c3cnn(CC(=O)NC4CNC4)c3)c(c1)C/C=C/CCO2 [IIb-38] | 1000 | –
18 | 14 | Nc1nc2nc3c1nc(O)n3Cc1ccc(-c3cc(C(=O)NCCCN4CCCC4=O)[nH]n3)c(c1)C/C=C/CCO2 [IIb-40] | 160 | –
19 | 3.7 | Nc1nc2nc3c1nc(O)n3Cc1ccc(OC3CCNCC3)c(c1)C/C=C/CCO2 [IIc-01] | 5 | –
20 | 23 | Nc1nc2nc3c1nc(O)n3Cc1cc(cc(OC3CCNCC3)c1)C/C=C/CCO2 [IIc-02] | 200 | –
21 | 15 | Nc1nc2nc3c1nc(O)n3Cc1ccc(Nc3cccc(CNC4CCC4)c3)c(c1)C/C=C/CCO2 [IId-01] | 60 | –
22 | 5.3 | Nc1nc2nc3c1nc(O)n3Cc1ccc(OCC(=O)NC3CNC3)c(c1)C/C=C\CCO2 [IIe-01] | 40 | –
23 | 70 | Nc1nc2nc3c1nc(O)n3Cc1ccc(OCC(=O)NC3CNC3)c(c1)C/C=C/CCO2 [IIe-02] | 1100 | –
